PMC6449406, “Classification of the human phox homology (PX) domains based on their phosphoinositide binding specificities” (Nature Communications, 2019)

Columns and labels:
[1] = biological target: T1, SNX25 PX domain (Homo sapiens, UniProt Q9H3E2); test: 1H-15N HSQC NMR titration; type: binding; details: pH 7.0, 100 mM NaCl, 298 K; secondary site (Lys734)
T1 construct: PX domain only, 15N-labelled, from GST fusion in E. coli
T1 sequence (Q9H3E2 506-628): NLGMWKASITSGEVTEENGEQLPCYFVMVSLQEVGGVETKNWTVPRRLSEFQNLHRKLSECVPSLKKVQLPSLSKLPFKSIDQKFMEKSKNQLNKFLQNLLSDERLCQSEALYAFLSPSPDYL

[2] = biological target: T2, SNX1 (Homo sapiens, UniProt Q13596); test: biochemical; set-up: ITC, soluble phosphoinositide headgroup analogue titrated into purified PX domain, 1:1 fit; details: ITC, 20 uM PX domain in cell
T2 construct: PX domain only, N-terminal GST removed by thrombin, E. coli
Excerpt: (§1) We next used isothermal titration calorimetry (ITC) to measure the binding of selected PX domains to soluble phosphoinositide headgroup analogues (Supplementary Figures 2, 3; Supplementary Table 4). These experiments quantitatively supported the results of the liposome pelleting assays for all of the PX domains tested. As an orthogonal method of quantitation, we used biolayer interferometry (BLItz) to measure the interactions of PX proteins with different phosphoinositide-containing membranes (Supplementary Figures 4, 5; Supplementary Table 5). In these experiments, liposomes containing a small amount of biotinylated lipids were coupled to streptavidin sensors, and dipped into solutions containing the PX domains at a single concentration of 20 μM. Again, the results of these liposome-binding experiments using BLItz correlated well with both ITC and liposome pelleting assays. The dissociation constants derived from BLItz analyses were generally in agreement with those from ITC and correlated well with the qualitative interactions observed in pelleting assays. As summarized in Supplementary Table 1, many previous reports have described interactions of human PX domain proteins with a variety of different phosphoinositide lipids, as well as other lipids such as phosphatidylserine (PS) and phosphatidic acid (PA) that may promote recruitment to various cellular organelles and membrane domains. Our aim was to perform parallel comparisons of as many human PX domains as possible, using qualitative and quantitative approaches to measure binding to both membrane mimetics and soluble phosphoinositide headgroups. […] Samples were subjected to ultracentrifugation followed by SDS-PAGE and Coomassie staining of the unbound supernatant (S) and bound pellet (P) fractions. b Water-soluble PtdIns3P and PtdIns(3,4)P2 headgroup analogues (500 μM) were titrated into the SGK3 PX domain (20 μM) and measured by ITC. […]

[3] = biological target: T3, SNX2 (Homo sapiens, UniProt O60749); test: biochemical; set-up: ITC, soluble phosphoinositide headgroup analogue titrated into purified PX domain, 1:1 fit; details: ITC, 20 uM PX domain in cell
T3 construct: PX domain only, N-terminal GST removed by thrombin, E. coli
T3 sequence (O60749 140-269 limits assumed): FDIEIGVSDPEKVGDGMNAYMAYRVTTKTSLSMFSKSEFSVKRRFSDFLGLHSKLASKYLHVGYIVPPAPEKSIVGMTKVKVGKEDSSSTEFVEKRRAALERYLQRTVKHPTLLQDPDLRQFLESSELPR
Excerpt: as §1

[4] = biological target: T1, SNX25 PX domain; test: biochemical; set-up: ITC, soluble phosphoinositide headgroup analogue titrated into purified PX domain, 1:1 fit; details: ITC, 20 uM PX domain in cell
Excerpt: as §1

[5] = biological target: T4, SNX23 (Homo sapiens, UniProt Q96L93); test: biochemical; set-up: ITC titration of soluble phosphoinositide headgroup analogue into PX domain, Kd
T4 construct: gene KIF16B; PX domain, GST removed
T4 sequence (Q96L93 1-1317): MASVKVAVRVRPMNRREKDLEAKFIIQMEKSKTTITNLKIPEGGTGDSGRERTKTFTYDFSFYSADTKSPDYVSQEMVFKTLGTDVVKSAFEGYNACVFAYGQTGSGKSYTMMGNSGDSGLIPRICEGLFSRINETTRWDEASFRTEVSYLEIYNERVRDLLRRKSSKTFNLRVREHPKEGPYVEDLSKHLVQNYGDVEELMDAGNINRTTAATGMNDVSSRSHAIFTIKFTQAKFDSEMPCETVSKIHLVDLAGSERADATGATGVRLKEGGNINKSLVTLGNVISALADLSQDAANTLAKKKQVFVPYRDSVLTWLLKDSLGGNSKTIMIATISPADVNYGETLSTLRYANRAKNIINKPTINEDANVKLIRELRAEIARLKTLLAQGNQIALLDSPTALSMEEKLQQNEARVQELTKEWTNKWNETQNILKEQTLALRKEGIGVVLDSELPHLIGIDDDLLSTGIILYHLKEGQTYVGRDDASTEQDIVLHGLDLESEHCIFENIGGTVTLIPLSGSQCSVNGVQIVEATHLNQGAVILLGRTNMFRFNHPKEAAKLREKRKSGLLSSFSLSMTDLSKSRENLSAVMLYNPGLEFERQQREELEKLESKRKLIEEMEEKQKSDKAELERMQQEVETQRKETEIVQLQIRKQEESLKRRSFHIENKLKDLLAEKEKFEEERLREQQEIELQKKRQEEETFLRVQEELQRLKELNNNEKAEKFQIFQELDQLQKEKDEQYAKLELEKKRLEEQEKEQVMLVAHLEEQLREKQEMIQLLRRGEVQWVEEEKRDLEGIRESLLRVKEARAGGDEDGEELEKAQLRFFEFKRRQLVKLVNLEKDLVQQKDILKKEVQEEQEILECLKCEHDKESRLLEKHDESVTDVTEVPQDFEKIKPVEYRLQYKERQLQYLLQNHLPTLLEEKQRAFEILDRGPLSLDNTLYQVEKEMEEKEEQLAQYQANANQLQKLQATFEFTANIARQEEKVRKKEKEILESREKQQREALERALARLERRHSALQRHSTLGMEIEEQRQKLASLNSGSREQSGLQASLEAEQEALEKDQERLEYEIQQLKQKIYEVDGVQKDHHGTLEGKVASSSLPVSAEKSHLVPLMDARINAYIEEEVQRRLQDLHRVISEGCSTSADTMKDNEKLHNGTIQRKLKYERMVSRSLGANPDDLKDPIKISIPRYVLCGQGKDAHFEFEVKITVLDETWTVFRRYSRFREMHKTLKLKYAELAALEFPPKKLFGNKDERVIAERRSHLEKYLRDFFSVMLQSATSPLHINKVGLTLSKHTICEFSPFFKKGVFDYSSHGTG
Excerpt: We next used isothermal titration calorimetry (ITC) to measure the binding of selected PX domains to soluble phosphoinositide headgroup analogues (Supplementary Figures 2, 3; Supplementary Table 4). These experiments quantitatively supported the results of the liposome pelleting assays for all of the PX domains tested. As an orthogonal method of quantitation, we used biolayer interferometry (BLItz) to measure the interactions of PX proteins with different phosphoinositide-containing membranes (Supplementary Figures 4, 5; Supplementary Table 5). In these experiments, liposomes containing a small amount of biotinylated lipids were coupled to streptavidin sensors, and dipped into solutions containing the PX domains at a single concentration of 20 μM. Again, the results of these liposome-binding experiments using BLItz correlated well with both ITC and liposome pelleting assays. The dissociation constants derived from BLItz analyses were generally in agreement with those from ITC and correlated well with the qualitative interactions observed in pelleting assays. Supplementary Information Supplementary Table 1. Previously reported structures and PtdInsP-binding specificities of mammalian PX proteins. Supplementary Table 2. PX domain constructs used in this study. Supplementary Table 3. […] PX domain binding to phosphoinositides measured by ITC.

[6] = biological target: the molecule itself; test: SEC; analytical gel filtration, Superdex 200 10/300, 50 mM Tris (pH 8.0), 100 mM NaCl, 2 mM DTT; 100 µl of SNX15 PX domain at 500 µM, 0.5 ml/min, 4 °C; mass from a calibration curve of standards

Question: How did the “1H-15N HSQC NMR titration” value [1] turn out when `CCCCCCCC(=O)OC[C@H](COP(=O)(O)O[C@H]1[C@H](O)[C@@H](O)[C@H](OP(=O)(O)O)[C@@H](OP(=O)(O)O)[C@H]1O)OC(=O)CCCCCCC` [PtdIns(3,4)P2 headgroup analogue] was run?
Answer: significant chemical shift perturbations were observed with di- and tri-phosphorylated phosphoinositides (PIP2 and PIP3)

Question: `CCCCCCCC(=O)OC[C@H](COP(=O)(O)O[C@@H]1[C@H](O)[C@H](OP(=O)(O)O)[C@@H](O)[C@H](OP(=O)(O)O)[C@H]1O)OC(=O)CCCCCCC` [PtdIns(3,5)P2 headgroup analogue] was tested. Which “1H-15N HSQC NMR titration” value [1] did it give?
Answer: significant chemical shift perturbations were observed with di- and tri-phosphorylated phosphoinositides (PIP2 and PIP3)

Question: And the Kd [2]?
Answer: 42 µM

Question: What about the Kd [3] of the same molecule?
Answer: 35.8 µM

Question: And the Kd [4]?
Answer: 12.1 µM

Question: And the Kd [5]?
Answer: 11.5 µM

Question: How did the “1H-15N HSQC NMR titration” value [1] turn out when `CCCCCCCC(=O)OC[C@H](COP(=O)(O)O[C@@H]1[C@H](O)[C@H](O)[C@@H](OP(=O)(O)O)[C@H](OP(=O)(O)O)[C@H]1O)OC(=O)CCCCCCC` [PtdIns(4,5)P2 headgroup analogue] was run?
Answer: significant chemical shift perturbations were observed with di- and tri-phosphorylated phosphoinositides (PIP2 and PIP3)

Question: `CCCCCCCC(=O)OC[C@H](COP(=O)(O)O[C@H]1[C@H](O)[C@@H](OP(=O)(O)O)[C@H](OP(=O)(O)O)[C@@H](OP(=O)(O)O)[C@H]1O)OC(=O)CCCCCCC` [PtdIns(3,4,5)P3 headgroup analogue] was tested. Which “1H-15N HSQC NMR titration” value [1] did it give?
Answer: significant chemical shift perturbations were observed with di- and tri-phosphorylated phosphoinositides (PIP2 and PIP3)

B1: SNX15 PX domain (domain or fragment, human)
chain: MSRQAKDDFLRHYTVSDPRTHPKGYTEYKVTAQFISKKDPEDVKEVVVWKRYSDFRKLHGDLAYTHRNLFRRLEEFPAFPRAQVFGRFEASVIEERRKGAEDLLRFTVHIPALNNSPQLKEFFRGG
notes: source: E. coli BL21(DE3)/pLysS, purified (glutathione-Sepharose, thrombin cleavage, size exclusion chromatography); not shown: GST, N-terminal, cleaved
Question: For B1, which “stoichiometry N” value [6] is on record?
Answer: 2
